EP4796171A2 (Zealand Pharma A/S, priority 2017, dated 2018)

Molecular target: T1, human GLP-2 receptors (Homo sapiens, UniProt O95838, D470N)
T1 sequence (O95838 1-553 D470N): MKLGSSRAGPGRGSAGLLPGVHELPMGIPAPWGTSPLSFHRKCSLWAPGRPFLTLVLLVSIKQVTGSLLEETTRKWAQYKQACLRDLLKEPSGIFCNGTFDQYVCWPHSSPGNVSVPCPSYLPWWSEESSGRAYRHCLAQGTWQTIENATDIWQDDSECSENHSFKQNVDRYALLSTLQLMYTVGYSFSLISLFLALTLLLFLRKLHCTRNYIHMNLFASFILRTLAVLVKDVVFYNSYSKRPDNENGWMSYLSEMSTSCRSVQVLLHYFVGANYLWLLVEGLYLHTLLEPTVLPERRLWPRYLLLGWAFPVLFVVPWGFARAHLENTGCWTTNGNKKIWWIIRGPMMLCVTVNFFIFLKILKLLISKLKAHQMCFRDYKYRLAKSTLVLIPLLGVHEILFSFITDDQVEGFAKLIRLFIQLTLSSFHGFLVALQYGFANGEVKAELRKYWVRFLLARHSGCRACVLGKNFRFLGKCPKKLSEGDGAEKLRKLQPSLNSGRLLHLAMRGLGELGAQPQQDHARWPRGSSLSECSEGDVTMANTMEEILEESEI
Assay: GLP-2 receptor efficacy assay (cAMP AlphaScreen)
Format: cell-based
Excerpt: The hGLP2-R was purchased from MRC-geneservice, Babraham, Cambridge as an Image clone: 5363415 (11924-117). For subcloning into a mammalian expression vector, primers for subcloning were obtained from DNA-Technology, Risskov, Denmark. The 5' and 3' primers used for the PCR reaction include terminal restriction sites for cloning and the context of the 5' primer is modified to a Kozak consensus without changing the sequence of the product encoded by the ORF. A standard PCR reaction was run using Image clone 5363415 (11924-117) as a template with the above mentioned primers and Polymerase Herculase II Fusion in a total vol. of 50µl. The generated PCR product was purified using GFX PCR and Gel band purification kit, digested with restriction enzymes and cloned into the mammalian expression vector using Rapid DNA Ligation Kit. Ligation reaction was transformed to XL10 Gold Ultracompetent cells and colonies were picked for DNA production using Endofree Plasmid maxi kit. Subsequent sequence analysis was conducted by MWG Eurofins, Germany.
HEK293 cells were transfected using the Lipofectamine PLUS transfection method. The day before transfection, HEK293 cells were seeded in two T75 flasks at a density of 2 x 10^6 cells / T75 flask in cell culturing medium without antibiotics. On the day of transfection, cells were washed with 1x DPBS and medium was replaced with Optimem to a volume of 5 mL / T75 flask before addition of Lipofectamine-plasmid complexes were added gently and drop wise to the cells in T75 flasks and replaced with growth medium after 3 hours and again to growth medium supplemented with 500µg/mL G418 after 24 hours. After 4 weeks in G418 selection, clones were picked and tested in a functional assay.
The cAMP AlphaScreen® assay from Perkin Elmer was used to quantitate the cAMP response to activation of the GLP2 receptor. […] Table 2: GLP-2R EC50 measurements

- EC50: 52 pM
- in vitro potency (in words, relative to ZP1848): comparable to ZP1848
Substance: H-HGEGTFSSELATILDALAARDFIAWLIATKITDK-OH [ZP2469]
